Test results from PubChem BioAssay (NCI).
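Where inhibition never reached the appropriate level, the endpoint shown equals the highest concentration tested. Otherwise, values were interpolated linearly from a five-concentration, 48-hour dose response in 96-well plates. GI50 = concentration required for 50% inhibition of growth. The concentration for full growth arrest is given as TGI.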

Legend:
Test in all cases: NCI tumour cell line growth inhibition, 48 h; in the data active = GI50 below about 0.43 µM; inactive = the rest
M19-MEL melanoma = tested on: M19-MEL melanoma
NCI-H522 lung = tested on: NCI-H522 lung
DU-145 prostate = tested on: DU-145 prostate
HT29 colon = tested on: HT29 colon
TK-10 renal = tested on: TK-10 renal
IGROV1 ovarian = tested on: IGROV1 ovarian
UACC-257 melanoma = tested on: UACC-257 melanoma
KM20L2 colon = tested on: KM20L2 colon
SNB-78 CNS = tested on: SNB-78 CNS
DMS 273 small cell lung = tested on: DMS 273 small cell lung
HCC-2998 colon = tested on: HCC-2998 colon
SR leukemia = tested on: SR leukemia

Cc1cn(C2CC(O)C(CO)O2)c(=O)[nH]c1=O (stereo not given)
> 4240 µM: TGI (NCI-H522 lung)
> 5000 µM: TGI (M19-MEL melanoma) | TGI (DU-145 prostate) | TGI (HT29 colon) | TGI (TK-10 renal) | TGI (IGROV1 ovarian) | TGI (UACC-257 melanoma) | TGI (KM20L2 colon) | TGI (SNB-78 CNS) | TGI (DMS 273 small cell lung) | TGI (HCC-2998 colon) | TGI (SR leukemia)

CSc1nsc(-c2ccccc2)[s+]1
> 100 µM: TGI (M19-MEL melanoma) | TGI (NCI-H522 lung) | TGI (TK-10 renal) | TGI (IGROV1 ovarian) | TGI (UACC-257 melanoma) | TGI (KM20L2 colon) | TGI (SNB-78 CNS) | TGI (DMS 273 small cell lung) | TGI (HCC-2998 colon) | TGI (SR leukemia)

Cc1ccc(-c2[nH]c(=O)n(C3OC(CO)C(O)C(O)C3O)c(=O)c2C#N)cc1 (stereo not given)
> 100 µM: TGI (NCI-H522 lung) | TGI (DU-145 prostate) | TGI (HT29 colon) | TGI (TK-10 renal) | TGI (IGROV1 ovarian) | TGI (UACC-257 melanoma) | TGI (HCC-2998 colon) | TGI (SR leukemia)

Cc1ccc(C(=C2Sc3ccccc3S2)C(=C2Sc3ccccc3S2)c2ccc(C)s2)s1
85.7 µM: TGI (SR leukemia)
> 100 µM: TGI (NCI-H522 lung) | TGI (DU-145 prostate) | TGI (HT29 colon) | TGI (TK-10 renal) | TGI (IGROV1 ovarian) | TGI (UACC-257 melanoma) | TGI (HCC-2998 colon)

CO[C@H]1/C=C(/C)CCC[C@H](C)[C@H](O)[C@@H](C)C(=O)C(C)(C)[C@@H](O)CC(=O)O[C@@H]1/C(C)=C/c1csc(C)n1
0.0224 µM: TGI (NCI-H522 lung)
0.525 µM: TGI (HT29 colon)
0.0817 µM: TGI (DU-145 prostate)
active: GI50 (NCI-H522 lung) < 0.01 µM | GI50 (DU-145 prostate) 0.0259 µM | GI50 (HT29 colon) < 0.01 µM | GI50 (TK-10 renal) 0.0366 µM | GI50 (IGROV1 ovarian) 0.0241 µM | GI50 (UACC-257 melanoma) 0.0452 µM | GI50 (HCC-2998 colon) 0.0203 µM | GI50 (SR leukemia) 0.0151 µM
> 58.2 µM: TGI (SR leukemia)
0.259 µM: TGI (HCC-2998 colon)
> 100 µM: TGI (TK-10 renal) | TGI (IGROV1 ovarian) | TGI (UACC-257 melanoma)

CCCSCC(P(=O)(O)O)P(=O)(O)O
> 100 µM: TGI (M19-MEL melanoma) | TGI (NCI-H522 lung) | TGI (HT29 colon) | TGI (IGROV1 ovarian) | TGI (UACC-257 melanoma) | TGI (KM20L2 colon) | TGI (SNB-78 CNS) | TGI (DMS 273 small cell lung) | TGI (HCC-2998 colon)

CCOP(=O)(OCC)C(c1ccc(F)cc1)N(C(=O)NC(F)(F)F)c1ccc(OC)cc1 (stereo not given)
> 100 µM: TGI (NCI-H522 lung) | TGI (DU-145 prostate) | TGI (HT29 colon) | TGI (TK-10 renal) | TGI (IGROV1 ovarian) | TGI (UACC-257 melanoma) | TGI (HCC-2998 colon) | TGI (SR leukemia)

CCCC(=O)OC1CC(n2cc(F)c(=O)[nH]c2=O)OC1COP(=O)(OCC(Cl)(Cl)Cl)OCC(Cl)(Cl)Cl (stereo not given)
> 92 µM: TGI (UACC-257 melanoma)
99.4 µM: TGI (SR leukemia)
41.3 µM: TGI (HT29 colon)
> 31.6 µM: TGI (IGROV1 ovarian)
> 100 µM: TGI (TK-10 renal)
16.6 µM: TGI (NCI-H522 lung)
3.34 µM: TGI (HCC-2998 colon)
> 67.6 µM: TGI (DU-145 prostate)

CS(=O)c1ncc2c(n1)-c1ccccc1OC2 (stereo not given)
> 100 µM: TGI (NCI-H522 lung) | TGI (DU-145 prostate) | TGI (HT29 colon) | TGI (TK-10 renal) | TGI (IGROV1 ovarian) | TGI (UACC-257 melanoma) | TGI (HCC-2998 colon) | TGI (SR leukemia)

O=C(CC(C(=O)c1ccsc1)c1ccc2c(c1)OCO2)c1ccccc1 (stereo not given)
> 100 µM: TGI (NCI-H522 lung) | TGI (DU-145 prostate) | TGI (HT29 colon) | TGI (TK-10 renal) | TGI (IGROV1 ovarian) | TGI (UACC-257 melanoma) | TGI (HCC-2998 colon) | TGI (SR leukemia)
